Data set [1] has as its system scFv-furin expressing IA2.2 cells. Description: SimpHony of early endosomes and TGN with and without Brefeldin A. It is filed as cell-based, Chinese Hamster. The note with it: BFA 20 μg/mL, 10 min. An excerpt:
SimpHony is applied on BFA-induced tubules positive for furin marked by I^FuA546/A647 while simultaneously marking transferrin containing endosomes with Tf-I^TfA488/A647. BFA treated cells show tubular extensions emerging from compartments localize near the MTOC (FIG. 18a). Tf-I^TfA488/A647 in these cells occupies the excluded space of I^FuA546/A647 in the region around the MTOC in addition to a few cytoplasmic endosomes (FIG. 19b).
FIG. 19 depicts localization of Tf-I^Tf and I^Fu DNA sensors in compartments after BFA treatment. scFv-Furin expressing IA2.2 cells are pulsed with about 500 nM I^FuA546/647 for 2 hours and chased for 30 min in presence of CHX followed by absence (a) or presence (b) of BFA (about 20 μg/mL) treatment of about 10 min at about 37° C. Cells are pulsed with about 500 nM Tf-I^TfA488/A647 in presence of BFA and CHX to label early endosomes. Arrowheads show MTOC. Scale Bar: 10 μm.
FIG. 22 describes the pH heterogeneity of early endosomes and TGN, pre and post treatment with BFA. IA2.2 cells are pulsed with about 500 nM IFuA546/A647 for about 2 hours and chased for 30 min in presence of about 125 ug/ml CHX followed by absence or presence of BFA (about 20 μg/mL) treatment of about 10 min at about 37° C. Cells are further treated with about 500 nM Tf-ITfA488/A647 in presence of about 20 μg/mL BFA and about 125 ug/ml CHX to label early endosomes.

In data set [2] the test system is IA2.2 cells expressing scFv-furin. Description: SimpHony of early and late endosomes with and without Dynasore. It is filed as cell-based, Chinese Hamster. Here is the method: The DNA sensor of the present disclosure is applied to this system, by marking early endosomes with about 500 nM Tf-I^TfA488/A647 and late endosomes with about 500 nM I^FuA546/A647 in the presence and absence of Dynasore. I^n the absence of Dynasore, early endosomes undergo active fusion and fission; showing an average pH of about 6.05±0.07 (FIG. 17) while the late endosomes show an average pH of about 5.43±0.3.
FIG. 17 depicts Dynasore mediated arrest of endosomal fission. Early/sorting and late endosomes in IA2.2 cells expressing scFv-furin are marked with about 500 nM Tf-I^TfA488/A647 at 37° C. for 10 min. Time lapse images of control cells (−Dy) where no dynasore is added, (+Dy) in presence of about 160 μM dynasore and (W) after dynasore is washed out and incubated for about 10 min at about 37° C. for recovery. Images are acquired with a time interval of about 2 s over 2 min period and compressed to a movie playing at 7 fps.

A short description of data set [3]: Comparison of DNA pH sensors with pH sensitive organic dyes and GFP based probes. The note with it: for Working regime: pH.
The test system of data set [4] is DNA epitopes ssDNA, dsDNA, R1, R2, RM. Description: ELISA screen of scFv clones for sequence specific binding to DNA epitopes. The note with it: epitopes R1, R2, RM of the 35 bp dsDNA; listed as C1. Here is the method:
The 35 bp dsDNA is divided into three regions: • (i) One region is composed of 13 bp of the antigen from the 3′ end (known as Region 1 (R1), FIG. 6a, red), • (ii) the second region corresponds to base pairs 16 to 28 from 3′ end (Region 2 (R2), FIG. 6a, green) and • (iii) the third region is an overlap of regions 1 and 2 (Region M (RM), FIG. 6a, blue).
These three duplexes are annealed and then immobilized on three different 96-well plates. scFv supernatant of the same clones is added to the wells and incubated as described earlier. […] Thus, the scFvs corresponding to these clones recognize only the first 8 base pairs of the 35 bp dsDNA i.e., the sequence d(AT)4.
In order to screen for sequence specificity of binding to duplex DNA, each of the selected clones are similarly assayed by ELISA to a set of surface-immobilized DNA scaffolds. These correspond to a single stranded DNA sequence comprising only the biotinylated strand of the 35 bp dsDNA the 35 bp dsDNA duplex (dsDNA), and three shorter duplex regions R1, R2 and RM corresponding to various sections on the 35 bp dsDNA duplex. R1 corresponds to a […] region at the 3′ terminus of the biotinylated ssDNA oligonucleotide, R2 correspond to a 13 bp region abutting R1, while RM corresponded to a 13 bp region overlapping the 5′ end of R1 and the 3′ of R2. […]
Background: An ELISA detects its analyte on a solid surface through an enzyme-linked reagent.

Another data set concerns 35 bp dsDNA tag, d(AT)4. The experiment in a line: Competitive ELISA, binding affinity of purified scFv to immobilized dsDNA. Here is the method:
The binding affinity of this scFv with the 35 bp DNA duplex is assayed using competitive ELISA that is performed using a fixed amount of immobilized dsDNA (25 pmoles) followed by the addition of a fixed concentration of scFv (200 nM) in the presence of an increasing concentration of unlabeled dsDNA (I^comp, about 10 nM to about 1 μM) in solution.
This experiment is carried out to find strength of binding of clone C1 with DNA. The affinity and specificity of scFv is analyzed by ELISA after purifying the scFv. Streptavidin-coated 96-well plate is incubated with dsDNA epitope used for screening in 5×SSCT (about 75 mM Sodium citrate, about 750 mM NaCl, about 0.05% Tween-20) for about 1.5 hours for immobilization of dsDNA onto the Streptavidin-coated 96-well plate.
For competition experiments, dsDNA immobilized onto Streptavidin-coated 96-well plate is incubated with the mixture of increasing amount of (from 0 to 10 micromoles) of competing nucleic acid, purified scFv (about 200-300 nM) and 1 in 1000 dilution of anti myc-tag antibody for about 1.5 hours at room temperature. […] Bound scFvs are detected by addition of 100 microliters of 2×TMB/H202 and OD at 450 nm is recorded and normalized with respect to the well where no competitor is added. […]

Entries after “also recorded” stand apart in the source; their conditions may differ.

As for `C[C@H]1CCC/C=C/[C@@H]2C[C@H](O)C[C@H]2[C@H](O)/C=C/C(=O)O1` [Brefeldin A], the “morphology of furin containing compartments” value in data set [1] is “tubulate extensively”.
On to `O=C(N/N=C/c1ccc(O)c(O)c1)c1cc2ccccc2cc1O` [Dynasore], for which the “average pH of early endosomes after wash out” value in data set [2] (Dynasore washed out) is recorded as “completely restored”. Further, the “early endosome morphology and dynamics” value in data set [2] (presence of 160 μM dynasore) is recorded as “extensive tubulation of the early endosomes as well as their arrested dynamics”.
Regarding `O=C1OC2(c3cc(F)c(O)cc3Oc3cc(O)c(F)cc32)c2ccccc21` [Oregon green 488], in data set [3], the pKa (usually the negative logarithm of the acid dissociation constant) is 4.7 and the Working regime is reported as 4.0-5.0.
With Fluorescein (FITC), in data set [3], the Working regime is 5-8.

B1: clone C1: scFv recombinant antibody from phage display binding dsDNA sequence d(AT)4; SEQ ID No. 16 (protein)
scFv: MAEVQLLESGGGLVQPGGSLRLSCAASGFTFSSYAMSWVRQAPGKGLEWVSTITKRGERTKYADSVKGRFTISRDNSKNTLYLQMNSLRAEDTAVYYCAKSTRAFDYWGQGTLVTVSSGGGGSGGGGSGGGGSTDIQMTQSPSSLSASVGDRVTITCRASQSISSYLNWYQQKPGKAPKLLIYGASYLQSGVPSRFSGSGSGTDFTLTISSLQPEDFATYYCQQTRFSPNTFGQGTKVEIKRAAAHHHHHHGAAEQKPISEEDLNGAAGGD
modifications: scFv Protein Sequence; DNA_BIND (1)..(271)
On to B1, for which, in data set [4], the “DNA epitope specificity by ELISA” value was “binding to R1 and no other region; also recorded: binds a DNA sequence ATATATAT”. In addition, the relative binding constant entry in the data set with 35 bp dsDNA tag, d(AT)4 (25 pmoles immobilized dsDNA, 200 nM scFv, competitor I^comp 10 nM to 1 μM) is “about 1.25×10^7 M^−1”. Moreover, the Kd (usually the free concentration of one partner at which half of the binding sites on the other are occupied at equilibrium, for simple one-to-one binding) at 35 bp dsDNA tag, d(AT)4 (35 bp DNA duplex / d(AT)4) came out at 80 nM.

Source of the values: patent publication US10443089B2, “Methods of multiplexing DNA sensors and localizing DNA sensor” (NATIONAL CENTRE FOR BIOLOGICAL SCIENCES (NCBS-TIFR), priority 2013, dated 2019).
